pIC50: −log10 of the molar value.
Tests used:
[1] = system: NCI-H292: human mucoepidermoid lung carcinoma cells; experiment: Cytotoxicity of metabolites, MTT assay, NCI-H292; assay type: cell-based; settings: growth inhibition, 96 h incubation
Procedure: The analysis of the cytotoxic effects of the anti-CD123 ADCs and the corresponding metabolites was carried out with various cell lines:
NCI-H292: human mucoepidermoid lung carcinoma cells, ATCC-CRL-1848, standard medium: RPMI 1640 (Biochrom; # FG1215, stab. glutamine)+10% FCS (Biochrom; # S0415).
The cells were cultivated by the standard method as stated by the American Tissue Culture Collection (ATCC) or the Leibniz-Institut DSMZ-Deutsche Sammlung von Mikroorganismen und Zellkulturen GmbH (DSMZ) for the cell lines in question.
The cells were cultivated according to the standard method using the growth media listed under C-1. The test is carried out by detaching the cells with a solution of Accutase in PBS (Biochrom AG # L2143), pelleting, resuspending in culture medium, counting and sowing into a 96-well culture plate with white bottom (Costar #3610) (NCI H292: 2500 cells/well; MOLM-13: 2000 cells/well; THP-1: 8000 cells/well; KG-1: 5000 cells/well in a total volume of 100 μl). The cells were then incubated in an incubator at 37° C. and 5% carbon dioxide. After 48 h, the medium was replaced.
The antibody drug conjugates or the metabolites in 10 μl of culture medium in concentrations from 10^−5M to 10^−13M were then pipetted to the cells (in triplicate), and the assay was then incubated in an incubator at 37° C. and 5% carbon dioxide. […] To this end, the MTT reagent was incubated with the cells for 4 h, followed by lysis of the cells overnight by addition of the detergent. The dye formed was detected at 570 nm (Infinite M1000 pro, Tecan). The measured data were used to calculate the IC50 of the growth inhibition using the DRC (dose response curve).
The proliferation of cells which were not treated with test substance but were otherwise identically treated was defined as the 100% figure.
Table 2 below lists the IC50 values of representative working examples from the assay described and the corresponding cytotoxicity data (MTT assay).

KPL4 = experiment: Cytotoxicity of metabolites, MTT assay, KPL4; assay type: cell-based
[2] = molecular target: T1, motor domain of the human kinesin spindle protein KSP/Eg5 (Homo sapiens, UniProt P52732); experiment: Inhibition of the kinesin spindle protein KSP/Eg5 (ATPase activity, malachite green); assay type: biochemical; settings: 10 nM KSP/Eg5, microtubuli, 500 μM ATP, 2 h at RT
T1 construct: The motor domain of the human kinesin spindle protein KSP/Eg5; purchased tebu-bio/Cytoskeleton Inc 027EG01-XL
T1 sequence (P52732 18-359 limits assumed): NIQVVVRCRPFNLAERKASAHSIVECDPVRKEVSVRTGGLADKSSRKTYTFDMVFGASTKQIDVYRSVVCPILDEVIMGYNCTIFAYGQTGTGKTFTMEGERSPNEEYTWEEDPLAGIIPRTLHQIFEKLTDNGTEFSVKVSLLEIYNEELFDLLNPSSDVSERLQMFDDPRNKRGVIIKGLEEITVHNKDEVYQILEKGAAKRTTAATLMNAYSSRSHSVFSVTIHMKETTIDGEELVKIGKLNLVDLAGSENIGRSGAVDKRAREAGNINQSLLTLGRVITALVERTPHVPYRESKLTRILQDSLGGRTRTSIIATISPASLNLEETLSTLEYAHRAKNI
Procedure: C-1b Determination of the Inhibition of the Kinesin Spindle Protein KSP/Eg5 by Selected Examples
The motor domain of the human kinesin spindle protein KSP/Eg5 (tebu-bio/Cytoskeleton Inc, No. 027EG01-XL) was incubated in a concentration of 10 nM with microtubuli (bovine or porcine, tebu-bio/Cytoskeleton Inc) stabilized with 50 μg/ml taxol (Sigma No. T7191-5MG) for 5 min at RT in 15 mM PIPES, pH 6.8 (5 mM MgCl2 and 10 mM DTT, Sigma). […] Incubation was at RT for 2 h. ATPase activity was detected by detecting the inorganic phosphate formed using malachite green (Biomol). […] The positive controls used were monastrol (Sigma, M8515-1 mg) and ispinesib (AdooQ Bioscience A10486). The individual data of the dose-activity curve are eight-fold determinations. The IC50 values are means of two independent experiments.

[3] = Cell permeability, flux assay using Caco-2 cells; assay type: in vitro ADME; settings: human
Caco-2 cells = experiment: Cell permeability, flux assay using Caco-2 cells; assay type: in vitro ADME; settings: Caco-2, B to A, 2 hours

CC(C)(C)[C@H](c1cc(-c2cc(F)ccc2F)cn1Cc1ccccc1)N(CC[C@H](N)C(=O)NCCNC(=O)CN1C(=O)CC(SC[C@H](N)C(=O)O)C1=O)C(=O)CO (stereo partly drawn) [Example M1, S-[1-(2-{[2-({(2S)-2-Amino-4-[{(1R)-1-[1-benzyl-4-(2,5-difluorophenyl)-1H-pyrrol-2-yl]-2,2-dimethylpropyl}(glycoloyl)amino]butanoyl}amino)ethyl]amino}-2-oxoethyl)-2,5-dioxopyrrolidin-3-yl]-L-cysteine/trifluoroacetic acid (1:1)]
IC50 ([1]; Homo sapiens, NCI-H292, 96 h): ≥ 500 nM
IC50 (KPL4; KPL4, growth inhibition): ≥ 500 nM

CC(C)(C)[C@H](c1cc(-c2cc(F)ccc2F)cn1Cc1ccccc1)N(CCCN)C(=O)CSC[C@H](NC(=O)CCOCCOCCOCCOCCNC(=O)CNC(=O)[C@H](CC(=O)O)SC[C@H](N)C(=O)O)C(=O)O.O=C(O)C(F)(F)F.O=C(O)C(F)(F)F [Example M21, (2R,24S,27R)-27-Amino-2-[({2-[(3-aminopropyl){(1R)-1-[1-benzyl-4-(2,5-difluorophenyl)-1H-pyrrol-2-yl]-2,2-dimethylpropyl}amino]-2-oxoethyl}sulphanyl)methyl]-24-(carboxymethyl)-4,20,23-trioxo-7,10,13,16-tetraoxa-25-thia-3,19,22-triazaoctacosane-1,28-dioic acid trifluoroacetic acid (1:2)]
pIC50 [2]: 8.64
Papp B→A at 2 h ([3]; Caco-2, B to A, 2 hours): 0.05 ×10⁻⁶ cm/s
efflux ratio at 2 h ([3]; Caco-2, ratio of Papp (B-A) to Papp (A-B)): 1.5

CC(C)(C)[C@H](c1cc(-c2cc(F)ccc2F)cn1Cc1ccccc1)N(CC[C@H](N)C(=O)NCCC(=O)N[C@@H](CCC(=O)O)C(=O)O)C(=O)CO [Example M23, N-{(2S)-2-Amino-4-[{(1R)-1-[1-benzyl-4-(2,5-difluorophenyl)-1H-pyrrol-2-yl]-2,2-dimethylpropyl}(glycoloyl)amino]butanoyl}-beta-alanyl-L-glutamic acid/trifluoroacetic acid (1:1)]
IC50 ([1]; Homo sapiens, NCI-H292, 96 h): ≥ 500 nM
IC50 (KPL4; KPL4, growth inhibition): ≥ 500 nM

CC(C)(C)[C@H](c1cc(-c2cc(F)ccc2F)cn1Cc1ccccc1)N(CC[C@H](N)C(=O)NCCC(=O)N[C@H](CCC(=O)O)C(=O)O)C(=O)CO [Example M24, N-{(2S)-2-Amino-4-[{(1R)-1-[1-benzyl-4-(2,5-difluorophenyl)-1H-pyrrol-2-yl]-2,2-dimethylpropyl}(glycoloyl)amino]butanoyl}-beta-alanyl-D-glutamic acid/trifluoroacetic acid (1:1)]
IC50 (KPL4; KPL4, growth inhibition): ≥ 500 nM

(1R,4R,27R,33R)-1-Amino-32-(3-aminopropyl)-33-[1-benzyl-4-(2,5-difluorophenyl)-1H-pyrrol-2-yl]-34,34-dimethyl-6,9,25,31-tetraoxo-13,16,19,22-tetraoxa-3,29-dithia-7,10,26,32-tetraazapentatriacontane-1,4,27-tricarboxylic acid/trifluoroacetic acid (1:2) [Example M20]
IC50 [1]: 149 nM
IC50 (KPL4; growth inhibition): 213 nM

N-{(2S)-2-Amino-4-[{(1R)-1-[1-benzyl-4-(2,5-difluorophenyl)-1H-pyrrol-2-yl]-2,2-dimethyl propyl}(glycoloyl)amino]butanoyl}-L-glutamic acid/trifluoroacetic acid (1:1) [Example M25]
IC50 [1]: ≥ 500 nM
IC50 (KPL4; growth inhibition): ≥ 500 nM
Papp (B-A) (Caco-2 cells): 0.81 ×10⁻⁶ cm/s

Source: patent publication US10744205B2, “Antibody drug conjugates of kinesin spindel protein (KSP) inhibitors with anti-CD123-antibodies” (Bayer Pharma Aktiengesellschaft, priority 2015, dated 2020)
